According to PubChem BioAssay (NCI):
Where “and” joins values, the source holds several entries; their conditions need not be identical. Equal values may be shown once.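 Results reflect a 48-hour exposure of cells in 96-well plates to compound at five concentrations. Here, GI50 denotes the concentration required for 50% inhibition of growth. TGI: concentration producing complete growth inhibition.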 *1 amine or outer side, *2 acyl side, *3 side chain or, on linkers, in order; H or OH if unused. Where a SMILES comes first, the peptide text is derived from it. Bridges are numbered along the chain shown (N, C = ends). [ ]: non-standard residue; d: D form. The star is where a group is joined. Phe(3,5-F2) = N[C@@H](Cc1cc(F)cc(F)c1)C(=O)O; Pro(4R-Me) = C[C@H]1CN[C@H](C(=O)O)C1; aThr = C[C@H](O)[C@H](N)C(=O)O; Pip = O=C(O)[C@@H]1CCCCN1; X10 = Fc1cc(C2CC2)ccc1N*; CO = O=C([*:1])[*:2]

Each molecule was assayed on MDA-MB-468 breast (assay: NCI anticancer screen, dose series, 48 h).

Going from `OC1CSSC1Cn1cnc2c(Nc3ccc(OCc4cccc(F)c4)c(Cl)c3)ncnc21` (configuration not stated) to `NS(=O)(=O)OC[C@@H]1C[C@@H](n2ccc3c(NC4CCc5ccccc54)ncnc32)C[C@@H]1O` (some centres not stated), the GI50 rises from 786 nM to 1310 nM (1.7-fold).

Going from `O=C(Nc1ccc(-n2ccc3c(NC(=O)c4ccccc4)nccc32)cc1)c1ccc(Cl)c(C(F)(F)F)c1` to `COC(=O)/C=C1\S/C(=N\NC(=O)c2cc3ccc2/C=C\c2ccc(cc2)/C=C\3)N(c2ccccc2)C1=O`, the GI50 rises from 919 nM to 1840 nM (2-fold).

Going from `Nc1c(C(=O)c2cccc(CCS(N)(=O)=O)c2)cnn1-c1ccc(F)cc1` to `O=C(Nc1ccc(F)cc1)Nc1ccc(Cl)c([N+](=O)[O-])c1`, the GI50 falls from over 17700 nM to 2150 nM.

Going from `OCc1cc2ccccc2c2c3c(ccc12)OCO3` to `Cc1ccc2c(C)c3c(ccc4ccccc43)c[n+]2c1`, the GI50 falls from 18900 nM to 408 nM (46-fold).

Compared with `COc1cccc(-c2cc(-c3cccc(NS(C)(=O)=O)c3)nc(N)c2C#N)c1O`, `COc1ccc2c(c1)sc1nc(-c3ccccc3)c(-c3cccc4ccccc34)n12` is 3.5-fold higher in GI50: 421 nM for the first, 1470 nM for the second.

Going from `COc1ccc([C@H]2[C@H](O)C(=O)N2c2cc(OC)c(OC)c(OC)c2)cc1F` to `COc1cc2c(c(OC)c1OC)-c1ccc(NNC(N)=S)c(=O)cc1[C@@H](NC(C)=O)CC2`, the GI50 rises from under 10 nM to 233 nM.

Going from `C=CC(=O)Nc1cc(Nc2ncc(C(=O)OC(C)C)c(-c3cn(C)c4ccccc34)n2)c(OC)cc1N(C)CCN(C)C` to `Cn1cc(C2=C(c3c4n(c5ccccc35)CCCCC4)C(=O)NC2=O)c2ccccc21`, the GI50 rises from under 10 nM to 1170 nM.

Compared with `Cc1ccc(NC(=O)Nc2ccc(-c3cccnc3)cc2N2CCC(CO)CC2)cc1`, `Cc1ccc(CN2CCC(C(=O)Nc3ccc(-c4cc5ccccc5[nH]4)cc3)CC2)o1` is 33-fold higher in GI50: 2490 nM for the first, 83400 nM for the second.

`Cc1ccnc2c1ccc1c(C)ccnc12` and `Fc1[nH]nc2ccc([C@@H]3Nc4ccc5[nH]ncc5c4[C@H]4C5CCC(C5)[C@@H]34)cc12` (some centres not stated) are within 1.5-fold of each other in GI50: 360 nM for the first, 361 nM for the second.

Compared with `COC1/C=C/OC2(C)Oc3c(C)c(O)c4c(O)c(c(/C=N/Nc5ccc([N+](=O)[O-])cc5[N+](=O)[O-])c(O)c4c3C2=O)NC(=O)C(C)=C/C=C/C(C)C(O)C(C)C(O)C(C)C(OC(C)=O)C1C` (configuration not stated), `C[C@@H]1C[C@H]2C(=O)O[C@@H](C)[C@H](NC(=O)[C@H](Cc3cc(F)cc(F)c3)NC(=O)Nc3ccc(C4CC4)cc3F)C(=O)N3CCC[C@H]3C(=O)N3CCCC[C@H]3C(=O)N[C@@H](C)C(=O)N2C1` ({X10-CO}-[Phe(3,5-F2)][aThr]P[Pip]A[Pro(4R-Me)]; ester 2-C) is 43-fold lower in GI50: 1110 nM for the first, 25.7 nM for the second.

First: CCN1/C(=C\c2cc[n+](CC)c3ccccc23)C=Cc2ccccc21
Second: CN(C)c1ccc(/C=C\C2=[N+](C)c3ccccc3C2(C)C)cc1
The GI50 of the first is 2.6-fold lower: 109 nM for the first, 287 nM for the second.

Going from `CN1CCCCC1CCN1c2ccccc2Sc2ccc(Cl)cc21` (configuration not stated) to `Cc1nc2sccn2c1-c1csc(Nc2ccccc2Cl)n1`, the GI50 falls from 1940 nM to 719 nM (2.7-fold).

Compared with `COc1cnc2c(c1)C(=O)c1c-2n(CCCN2CCOCC2)c(=O)c2cc(F)ccc12`, `Cc1cc(-c2nc(C(=O)Nc3cc4oc(N5CCOCC5)nc4nc3N3CC[C@@H](O)C3)co2)ccn1` is 68-fold higher in GI50: 195 nM for the first, 13300 nM for the second.

First: CC1CCc2nc[nH]c(=O)c21 (configuration not stated)
Second: COc1cc(/C=N\NC(=O)CN2CCN(c3cc4c(cc3F)c(=O)c(C(=O)N/N=C/c3cc(OC)c(OC)c(OC)c3)cn4C3CC3)CC2)cc(OC)c1OC
The GI50 of the first is higher: over 100000 nM for the first, 221 nM for the second.

Compared with `OC1CSSC1Cn1cnc2c(Nc3ccc(OCc4cccc(F)c4)c(Cl)c3)ncnc21` (configuration not stated), `NS(=O)(=O)OC[C@@H]1C[C@@H](n2ccc3c(NC4CCc5ccccc54)ncnc32)C[C@@H]1O` (some centres not stated) is 24-fold higher in TGI: 2120 nM for the first, 50200 nM for the second.

First: O=C(Nc1ccc(-n2ccc3c(NC(=O)c4ccccc4)nccc32)cc1)c1ccc(Cl)c(C(F)(F)F)c1
Second: COC(=O)/C=C1\S/C(=N\NC(=O)c2cc3ccc2/C=C\c2ccc(cc2)/C=C\3)N(c2ccccc2)C1=O
The TGI of the first is 1.5-fold higher: 5650 nM for the first, 3740 nM for the second.

Compared with `Nc1c(C(=O)c2cccc(CCS(N)(=O)=O)c2)cnn1-c1ccc(F)cc1`, `O=C(Nc1ccc(F)cc1)Nc1ccc(Cl)c([N+](=O)[O-])c1` is lower in TGI: over 25000 nM for the first, 7540 nM for the second.

Compared with `OCc1cc2ccccc2c2c3c(ccc12)OCO3`, `Cc1ccc2c(C)c3c(ccc4ccccc43)c[n+]2c1` is 29-fold lower in TGI: 65100 nM for the first, 2240 nM for the second.

`COc1cccc(-c2cc(-c3cccc(NS(C)(=O)=O)c3)nc(N)c2C#N)c1O` and `COc1ccc2c(c1)sc1nc(-c3ccccc3)c(-c3cccc4ccccc34)n12` are within 1.5-fold of each other in TGI: 4230 nM for the first, 5050 nM for the second.

Compared with `COc1ccc([C@H]2[C@H](O)C(=O)N2c2cc(OC)c(OC)c(OC)c2)cc1F`, `COc1cc(/C=N\NC(=O)CN2CCN(c3cc4c(cc3F)c(=O)c(C(=O)N/N=C/c3cc(OC)c(OC)c(OC)c3)cn4C3CC3)CC2)cc(OC)c1OC` is lower in TGI: over 100000 nM for the first, 535 nM for the second.

First: C=CC(=O)Nc1cc(Nc2ncc(C(=O)OC(C)C)c(-c3cn(C)c4ccccc34)n2)c(OC)cc1N(C)CCN(C)C
Second: Cn1cc(C2=C(c3c4n(c5ccccc35)CCCCC4)C(=O)NC2=O)c2ccccc21
The TGI of the first is lower: 69 nM for the first, over 19900 nM for the second.

Compared with `Cc1ccc(NC(=O)Nc2ccc(-c3cccnc3)cc2N2CCC(CO)CC2)cc1`, `Cc1ccc(CN2CCC(C(=O)Nc3ccc(-c4cc5ccccc5[nH]4)cc3)CC2)o1` is higher in TGI: 7120 nM for the first, over 100000 nM for the second.

Compared with `Cc1ccnc2c1ccc1c(C)ccnc12`, `Fc1[nH]nc2ccc([C@@H]3Nc4ccc5[nH]ncc5c4[C@H]4C5CCC(C5)[C@@H]34)cc12` (some centres not stated) is 4.4-fold higher in TGI: 2720 nM for the first, 12000 nM for the second.

Going from `COC1/C=C/OC2(C)Oc3c(C)c(O)c4c(O)c(c(/C=N/Nc5ccc([N+](=O)[O-])cc5[N+](=O)[O-])c(O)c4c3C2=O)NC(=O)C(C)=C/C=C/C(C)C(O)C(C)C(O)C(C)C(OC(C)=O)C1C` (configuration not stated) to `C[C@@H]1C[C@H]2C(=O)O[C@@H](C)[C@H](NC(=O)[C@H](Cc3cc(F)cc(F)c3)NC(=O)Nc3ccc(C4CC4)cc3F)C(=O)N3CCC[C@H]3C(=O)N3CCCC[C@H]3C(=O)N[C@@H](C)C(=O)N2C1` ({X10-CO}-[Phe(3,5-F2)][aThr]P[Pip]A[Pro(4R-Me)]; ester 2-C), the TGI falls from 2860 nM to 187 nM (15-fold).

Going from `CCN1/C(=C\c2cc[n+](CC)c3ccccc23)C=Cc2ccccc21` to `CN(C)c1ccc(/C=C\C2=[N+](C)c3ccccc3C2(C)C)cc1`, the TGI rises from 519 nM to 5080 nM (9.8-fold).

`CN1CCCCC1CCN1c2ccccc2Sc2ccc(Cl)cc21` (configuration not stated) and `Cc1nc2sccn2c1-c1csc(Nc2ccccc2Cl)n1` are within 1.5-fold of each other in TGI: 4440 nM for the first, 5840 nM for the second.

Going from `COc1cnc2c(c1)C(=O)c1c-2n(CCCN2CCOCC2)c(=O)c2cc(F)ccc12` to `Cc1cc(-c2nc(C(=O)Nc3cc4oc(N5CCOCC5)nc4nc3N3CC[C@@H](O)C3)co2)ccn1`, the TGI rises from 656 nM to 64800 nM (99-fold).

In the case of `CC1CCc2nc[nH]c(=O)c21` (configuration not stated), the TGI is reported as over 100000 nM.

In the case of `C[C@@H](Oc1cc(-n2cnc3ccc(CN4CCN(C)CC4)cc32)sc1C(N)=O)c1ccccc1C(F)(F)F`, the GI50 is reported as < 10 nM and 4 nM.

For `C[C@@H](Oc1cc(-n2cnc3ccc(CN4CCN(C)CC4)cc32)sc1C(N)=O)c1ccccc1C(F)(F)F`, the TGI was 1400 nM and 2870 nM.
